Experimental data reported in article PMC6237130, “Disarming the virulence arsenal of Pseudomonas aeruginosa by blocking two-component system signaling” (Chemical Science, 2018).
Entries after “also recorded” stand apart in the source; their conditions may differ.

Experiments:
P. aeruginosa PA14 [1] = experiment: RT-qPCR of virulence and TCS genes in PA14; format: cell-based, Pseudomonas aeruginosa; conditions: PA14, 9 h, 200 and 500 μM
Method: RNA isolation, Reverse Transcriptase -qPCR experiments
(§1) P. aeruginosa PA14 strain was grown overnight (~16 h) in LB media at 37 °C and 200 RPM.
The overnight culture was diluted 1:100 in fresh LB media. Four mL of this culture was then taken in a 15 mL borosilicate glass tube, to which Rilu-inhibitors in DMSO were added to a final concentration of 200 µM or 500 µM (for the control experiments, same amount of DMSO was added). These cultures were then grown for 9 h (late exponential phase) at 37 °C and 200 RPM, OD620 ~0.7. Total RNA was extracted from ~2 mL cell pellet using an RNAEasy Mini kit (Qiagen), according to the manufacturer’s instructions, including exogenous DNase treatment with Ambion Turbo-DNAse Kits. RNA integrity was confirmed by native gel electrophoresis and the quantities were measured using a nanophotometer. cDNA was generated using the DNA-free total RNA using (Applied Biosystems High Capacity cDNA Reverse Transcription Kits) random-primed reverse transcriptase reaction following the manufacturer’s protocol. The cDNA was used as template for quantitative PCR (BioRad MyiQ2 dual-color system) using the SYBR Green detection system (BioRad) on white 96-well PCR plates. Melt curves were obtained for every run, and any wells with multiple peaks were excluded from analysis. Signal was standardized to 2 housekeeping genes, recA, rpoD using the ∆∆C method equation:8 Relative […]
expression = 2(CT standard −C T sample), where CT (cycle time) was determined automatically by the Real Time iQ5 PCR software (BioRad). Primers (Integrated DNA Technologies) for RT-qPCR were designed using NCBI Primer-Blast software. Criteria for primer design were a […]
; primer size = 18 –22 bp; product size = 80–130 bp; product Tm
= 60– 90 °C. Samples were assayed in triplicate and statistical analyses was done with one-way ANOVA (Origin 9.1 software).
Table S5. List of primer pairs used in qPCR
Target gene Forward Reverse […]

HK853 [2] = target: T1, HK853 (Thermotoga maritima, UniProt Q9WZV7); experiment: Inhibition of HK853 activity (BODIPY-ATPγS competition, HK autophosphorylation); format: biochemical; conditions: for IC50 values for HK853 inhibitory activity: Fig. 1b and text, HK autophosphorylation; for IC50 values (µM) (95% confidence interval), n = 2: Table S1, HK853 inhibition
Method: Inhibition of HK853 Activity
Triton X-100 was premixed with reaction buffer to yield 0.1% (v/v) in final
25-µL reactions. In reaction buffer, 1 µM HK853 was preincubated with test compounds (final
1 µL BODIPY -ATPγS was added to bring
competitors and 5% DMSO. Samples were mixed and incubated in the dark at RT for 1 h before
quenching with 8.6 µL 4× SDS-PAGE sample loading buffer and loading 15 µL on a 10%
stacking gel. After SDS-PAGE, in-gel fluorescence detection elucidated HK853 activity, and
coomassie staining of the gels ensured even protein loading. Integrated density values of the
fluorescent gel bands were normalized as “% Activity” with respect to a control that contained
no inhibitor. Data were plotted in GraphPad Prism with relation to the log of molar inhibitor to
(control FP competition and activity assays), data were fit to a four-parameter logistic equation,
where y is the response, Bottom and Top are plateaus in the units of the y-axis, x is the log of the
molar concentration of inhibitor, HillSlope is the slope of the curve, and IC50 is the concentration
As a result, IC50 values were estimated by constraining the bottom of the curve to

P. aeruginosa PA14 [3] = experiment: Swarming assay; format: cell-based, Pseudomonas aeruginosa; conditions: 200 μM; for Swarming motility: after 5 days
Method: (§2) Swarming assays and quantification of rhamnolipids in swarm-plates
(§3) We followed the revised protocol developed by Trembley et al. for P. aeruginosa swarm assays.6 Plates consisted of modified M9 medium [20 mM NH4Cl; 12 mM Na2HPO4; 22 mM KH2PO4; 8.6 mM NaCl; 1 mM MgSO4; 1 mM CaCl2•2H2O; 11 mM dextrose; 0.5% casamino acids (Difco)] solidified with Bacto-agar (Difco). The M9 media without MgSO4 and CaCl2•2H2O was autoclaved, which were added after cooling the media ~60 °C. The pH was adjusted after autoclaving with HCl and NaOH (pH = 7.5). Then, a 1-in-100 dilution of filter-sterile stock containing 1 mg/mL Nile red (Sigma Aldrich) dissolved in 85% ethylene glycol and added (prepared the day of use to limit photoinactivation).7 Twenty mL of this media was poured into […]
(for the control experiments, same amount of DMSO was added). Plates were allowed to dry for 60 min, with the first 20 min under UV light to ensure plates were sterile following pH adjustment. P. aeruginosa PA14 strain was grown overnight (~16 h) in LB media at 37 °C and 200 RPM. Five µl of bacteria were spotted at the center of each plate, which were incubated at 30 °C in the dark and ~20% humidity. The plates were intermittently taken out for fluorescence scanning [scan settings: GE Typhoon Variable Mode Imager 9500, using 532-nm laser with DY-520XL (λex: 520 nm, λem: 664 nm)]. The scans were visualized and integrated density measurements of whole-plate fluorescence was measured using ImageJ software. Images of these plates were also taken with a Nikon D5200 DSLR camera, which were processed in Adobe Photoshop Lightroom 5 (Mac version) for phase-contrast.
Figure S9. Swarming motility of PA14 in the presence of Rilu-inhibitors at 200 µM after 5 days.
(§4) The top images are fluorescence scans for detecting Nile Red and the bottom images were taken

HK853 [4] = target: T1, HK853; experiment: HK853 aggregation analysis (native-PAGE); conditions: for Compound-induced HK853 aggregation: native-PAGE, Fig. S3
Method: HK853 Aggregation Analysis
To analyze the propensity for compounds to cause aggregation, each was mixed at six […]
(5% (v/v) DMSO final). After incubating at RT for 30 min, 8.6 µL native-PAGE sample loading buffer was added, and 15 µL was loaded onto a 7.5% polyacrylamide gel. Proteins were resolved by native-PAGE and silver staining. Compound-induced aggregation was detected by the disappearance of the dimeric HK853 band. NH125 (Tocris Bioscience) was used as a positive […]

P. aeruginosa PA14 [5] = experiment: Growth of PA14 cultures with inhibitors (OD620, CFU); format: cell-based, Pseudomonas aeruginosa; conditions: for Bacteriostatic and bactericidal properties in PA14 cultures: OD620 measurements and CFU studies, even at high concentrations (500 μM); for t = 9 h, OD620 / t = 24 h, OD620: Table S3, PA14 cultures for metabolomics, 200 µM, 37 °C
Method: The overnight culture was diluted 1:100 in fresh LB media. 4 mL of this culture was then put
into a 15 mL borosilicate glass tube, to which Rilu-inhibitors in DMSO were added to a final
concentration of 200 µM and 500 µM (for the control experiments, the same amount of DMSO
was added). These cultures were grown for 24 h at 37 ° C and 200 RPM, and their OD620 values
were measured using a spectrophotometer at various time points.
200 µM and 500 µM after 16 h at 37 °C.

P. aeruginosa PA14 [6] = experiment: LC-MS/MS analyses of metabolites in PA14 culture supernatant; format: cell-based, Pseudomonas aeruginosa; conditions: 200 μM, 9 h, 37 °C, relative to DMSO control
Method: LC-MS analyses of metabolites
The overnight culture was diluted 1:100 in fresh LB media. 4 mL of this culture was added into a 15 mL borosilicate glass tube, to which Rilu-inhibitors in DMSO were added to a final concentration of 200 µM (for the control experiments, same amount of DMSO was added).
These cultures were grown for 9 h (late exponential phase) or 24 h (stationary phase) at 37 °C and 200 RPM. The OD620 values were measured using a spectrophotometer. 1 mL of each culture was placed in a 1.7 mL Eppendorf tube, centrifuged at 5,000 g for 5 min and the supernatant was removed from the cell pellets. The supernatants were directly analyzed on an ESI-LC-MS/MS instrument for metabolites and the cell pellets (from 9 h cultures) were further used for RNA extraction in q-PCR experiments.
Injections of 2 µ L were separated on Zorbax Eclipse plus C18 column (2.1 mm x 50
MeOH:5% water with 0.1% formic acid). The metabolites were separated using an isocratic elution of 100% for 0-3 min, then a 3-17 min linear gradient to 100% B, and 17-20 min of 100% B at a constant flow rate of 0.4 ml/min. Samples were measured in positive ion mode and data was collected in triplicate. Data were analyzed using the Agilent MassHunter Quantitative Analysis suite. From the extracted ion chromatograms (EICs) of the respective metabolite signals, the peak areas were normalized to the OD620 growth values of the respective cultures. All of the peak areas of the treated samples were plotted by considering the DMSO-control sample to be 100% abundance.

P. aeruginosa PA14 [7] = experiment: Biofilm assay (microtitre, crystal violet); format: cell-based, Pseudomonas aeruginosa; conditions: high concentrations, PA14, 24 h, relative to DMSO control
Method: as §1
The overnight culture was diluted 1:100 in fresh LB media. 200 µL of this culture was then used to inoculate each well of a microtiter plate, to which Rilu-inhibitors were added in DMSO to final concentration of 200 µM or 500 µM (for the control experiments, same amount of DMSO was added). Eight wells per plate were used for each sample. These cultures were grown for 24 h at 37 °C without shaking. After growth, the planktonic cultures were carefully removed to a new microtitre plate to measure the OD620 values. The adhered cells were washed carefully three times with sterile PBS buffer, and then the cells were fixed with MeOH for 20 min. After removing the MeOH, the wells were allowed to dry for 10 min, followed by addition of 0.1% crystal violet. After 15 min of incubation, the stain was carefully removed without touching the rest of the plate. The excess stain was washed away 3 times from the wells with distilled water and the plate was allowed to dry for ~1 h. Finally, the adhered stain was redissolved in 30% acetic acid solution (for 1 h) and absorbance was measured at 595 nm. Assays were repeated in […]
Figure S8. (a) Different stages of biofilm formation. (b) Biofilm formation assessment. All values are plotted relative to a DMSO-treated control and normalized to the final cell density (OD620). […]

Vero cells = system: Vero cells; parameters: method as in PMID 25531939; conditions: at <180 μM; cited from earlier work
P. aeruginosa PA14 [8] = experiment: Quantification of rhamnolipids in swarm-plates (Nile red, ImageJ); format: cell-based, Pseudomonas aeruginosa; conditions: 200 μM, Nile red fluorescence, quantified with ImageJ
Method: as §2, §3
(for the control experiments, same amount of DMSO was added). Plates were allowed to dry for 60 min, with the first 20 min under UV light to ensure plates were sterile following pH adjustment. […] The plates were intermittently taken out for fluorescence scanning [scan settings: GE Typhoon Variable Mode Imager 9500, using 532-nm laser with DY-520XL (λex: 520 nm, λem: 664 nm)]. The scans were visualized and integrated density measurements of whole-plate fluorescence was measured using ImageJ software. […]
as §4

P. aeruginosa PA14 [9] = experiment: Rapid attachment assay; format: cell-based, Pseudomonas aeruginosa; conditions: PA14, 60 min adhesion, relative to DMSO control
Method: as §1
The overnight cultures were washed and diluted in LB medium to an OD620 value of 1.0. 100 µL of this suspension was used to inoculate each well of a microtiter plate in presence of Rilu-inhibitors in DMSO at 200 µM or 500 µM (for the control experiments, same amount of DMSO was added). Eight wells per plate were used for each sample. Cells were allowed to adhere for 60 min at 37 °C and 200 RPM. After the planktonic cells were removed, staining with crystal violet was carried out, as described in the biofilm assay procedure. Assays were repeated in triplicate.

T1 sequence (Q9WZV7 entry or part of it): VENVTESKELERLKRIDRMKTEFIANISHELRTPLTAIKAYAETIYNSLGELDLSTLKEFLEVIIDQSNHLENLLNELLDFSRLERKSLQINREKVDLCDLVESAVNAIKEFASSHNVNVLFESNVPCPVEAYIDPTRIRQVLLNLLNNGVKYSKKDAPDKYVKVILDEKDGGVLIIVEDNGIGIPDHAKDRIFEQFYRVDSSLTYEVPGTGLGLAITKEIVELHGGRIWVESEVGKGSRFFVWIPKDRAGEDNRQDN

SMILES | Effect on expression of virulence-associated genes (pqsR, fleQ and pilA) (P. aeruginosa PA14 [1]) | Swarming motility (P. aeruginosa PA14 [3]) | Compound-induced HK853 aggregation (HK853 [4]) | Bacteriostatic and bactericidal properties in PA14 cultures (P. aeruginosa PA14 [5]) | t = 9 h, OD620 (P. aeruginosa PA14 [5]) | t = 24 h, OD620 (P. aeruginosa PA14 [5]) | other results
Cc1nc2ccc(N)cc2s1 [Rilu-7] | does not significantly affect | – | – | – | – | – | –
Nc1nc2cc(Br)c(Br)cc2s1 [Rilu-11] | – | – | – | – | – | – | IC50 values for HK853 inhibitory activity (HK853 [2]): No inhibition; also recorded: inactive; IC50 values (µM) (95% confidence interval), n = 2 (HK853 [2]): No Inhibition
Nc1nc2ccc(OC(F)(F)F)cc2s1 [Rilu-1, riluzole, reference compound] | – | moderate difference in swarming | non-aggregators | None of these compounds substantially slowed growth or killed the organism | – | – | –
Nc1nc2ccc([N+](=O)[O-])cc2s1 [Rilu-4] | substantially downregulated | moderate difference in swarming | non-aggregators | None of these compounds substantially slowed growth or killed the organism | 0.842 | 1.65 | –
Nc1nc2c(Cl)cc(Cl)cc2s1 [Rilu-10] | – | – | – | – | – | – | IC50 values for HK853 inhibitory activity (HK853 [2]): No inhibition; also recorded: inactive; IC50 values (µM) (95% confidence interval), n = 2 (HK853 [2]): No Inhibition
Nc1nc2ccc(Oc3ccc4nc(N)sc4c3)cc2s1 [Rilu-2] | – | – | non-aggregators | None of these compounds substantially slowed growth or killed the organism | 0.851 | 1.60 | Reduction of PCN (P. aeruginosa PA14 [6]): ~85%; Reduction of PYO (P. aeruginosa PA14 [6]): 70%; Reduction of biofilm mass (P. aeruginosa PA14 [7]): 25%; Cytotoxicity to Vero cells (Vero cells): not cytotoxic
CCCCCCCCCCCCCCCCn1cc[n+](Cc2ccccc2)c1C.[I-] [NH-125, reference compound] | – | – | – | – | – | – | Concentration causing disappearance of the protein dimer band (protein aggregation) (HK853 [4]; native-PAGE of HK853, positive aggregation control): ≥ 10 µM
Nc1nc2cc3sc(N)nc3cc2s1 [Rilu-12] | substantially downregulated | major impairment in motility | non-aggregators | None of these compounds substantially slowed growth or killed the organism | 0.883 | 1.65 | Swarming motility, tendril formation (P. aeruginosa PA14 [3]; after 40 h): most prominently; Amount of PCA produced (P. aeruginosa PA14 [6]): ~8%; Reduction of RL production on swarm agar plates (P. aeruginosa PA14 [8]): 70%; Reduction in surface attachment (P. aeruginosa PA14 [9]): 70%
